A word on the Ki: it is a measure of affinity in units of concentration, obtained from inhibition or displacement. The low end stands for higher affinity, the high end for lower affinity.

Ki data for 7 compounds are collected here from patent US20140148492A1, “BICYCLOSUBSTITUTED PYRAZOLE COMPOUNDS FOR TREATING HAIR LOSS” (Boehringer Ingelheim International GmbH, priority 2012, published 2014).

The target of this experiment is T1, human CRTH2 receptor (Homo sapiens, UniProt Q9Y5Y4).
T1 construct: host or cells: CHO-K1 (CHO-K1-hCRTH2 cells), membranes prepared in house
T1 sequence (Q9Y5Y4 1-395): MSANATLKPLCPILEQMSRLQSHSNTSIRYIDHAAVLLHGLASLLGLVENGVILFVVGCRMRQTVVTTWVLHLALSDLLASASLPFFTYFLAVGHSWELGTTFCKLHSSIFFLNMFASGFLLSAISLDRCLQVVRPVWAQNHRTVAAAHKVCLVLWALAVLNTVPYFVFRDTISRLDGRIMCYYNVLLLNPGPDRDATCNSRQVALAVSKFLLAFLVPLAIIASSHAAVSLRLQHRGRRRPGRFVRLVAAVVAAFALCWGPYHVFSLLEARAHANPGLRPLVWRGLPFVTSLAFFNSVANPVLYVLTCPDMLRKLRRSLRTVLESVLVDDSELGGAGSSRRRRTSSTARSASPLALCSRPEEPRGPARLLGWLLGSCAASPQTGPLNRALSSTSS
As to the kind of experiment: CRTH2 receptor radioligand binding assay (SPA, [3H]-PGD2). The conditions noted are these: displacement of [3H]-PGD2 (1 nM) from CHO-K1-hCRTH2 cell membranes, SPA format, 3 h room temperature. How it is done: The binding of CRTH2 antagonists is determined using membranes prepared from Chinese hamster ovary cells (CHO-K1 cells) transfected with the human CRTH2 receptor (CHO-K1-hCRTH2 cells, Perkin Elmer, Cat No ES-561-C). To produce cell membranes the CHO-K1-hCRTH2 cells are cultured in suspension in CHO SFMII medium supplemented with 400 μg/ml G418. The cells are harvested by centrifugation at 300 g for 10 min at room temperature. The cell pellet is resuspended in Phosphate Buffer Saline (PBS) including a protease inhibitor mix (Complete, Roche) and adjusted to a concentration of 10E7 cells/ml. The CHO-K1-hCRTH2 cells are disrupted by nitrogen […] to obtain the membrane preparation. Cell debris is removed by centrifugation (500 g at 4° C., 30 min) and the supernatant is transferred into fresh tubes followed by a second centrifugation at 40000 g for 1 h at 4° C. to sediment the membranes. The membranes are suspended in SPA incubation buffer (50 mM Tris HCl, 10 mM MgCl2, 150 mM NaCl, 1 mM EDTA, pH 7.4) without bovine serum albumin, homogenized by passing through a single use needle (Terumo, 23G×1″), and stored in aliquots at −80° C.
The CRTH2 receptor binding assay is performed in a scintillation proximity assay (SPA) format with the radioligand [^3H]-PGD2 (Perkin Elmer, NET616000MC). CHO-K1-hCRTH2 cell membranes are again homogenized by passing through a single use needle (Terumo, 23G×1″) and diluted in SPA incubation buffer in suitable concentrations (0.5-10 μg protein/well). The SPA assay is set up in 96 well microtiter plates (Perkin Elmer, CatNo. 6005040) in SPA incubation buffer with a final volume of 200 μl per well and final concentration of 50 mM Tris-HCl, 10 mM MgCl2, 150 mM NaCl, 1 mM EDTA pH 7.4, 0.1% bovine serum albumin). The SPA assay mixture contains 60 μl of the membrane suspension, 80 μl of Wheat Germ Agglutinin coated PVT beads (GE Healthcare, RPNQ-0001, 0.3 mg/well), 40 μl of [3H]-PGD2 diluted in SPA buffer to a final concentration of 1 nM (50 000 dpm) and 20 μl of the test compound (dissolved in dimethylsulfoxid). The SPA assay mixture is incubated for 3 h at room temperature. Bound radioactivity is determined with a scintillation counter (Micro Beta Trilux, Wallac).
The binding of [^3H]-PGD2 to CHO-K1-hCRTH2 cell membranes is determined in the absence (total binding, Bo) and presence (non-specific binding, NSB) of unlabelled PGD2 (1 μM, Cayman Chemical, Cat No 12010) or a reference CRTH2 antagonist (10 μM CAY10471, Cayman Chemical, Cat No 10006735).
Determination of the affinity of a test compound is calculated by subtraction of the non-specific binding (NSB) from the total binding (Bo) or the binding in the presence of the test compound (B) at a given compound concentration. […] The Bo-NSB value is set to 0% inhibition.
For orientation: Displacement assays read how much labelled ligand stays bound in the presence of the test substance.
`Cc1nn(Cc2ccc(NC(=O)c3cc4ccccc4[nH]3)cc2F)c(C)c1CC(=O)O` [Cmpd 1] showed a Ki of 0.8 nM.

Compound `Cc1nn(Cc2ccc(NC(=O)c3oc4ccc(F)cc4c3C)cc2)c(C)c1CC(=O)O` [Cmpd 4] returned a Ki of 0.8 nM.

Take `Cc1nn(Cc2ccc(NC(=O)c3cc4ccccc4o3)cc2)c(C)c1CC(=O)O` [Cmpd 26]: the Ki came to 0.8 nM. This lies in the sub-nanomolar range.

In turn, `Cc1nn(Cc2ccc(NC(=O)c3oc4ccc(F)cc4c3C)cc2F)c(C)c1CC(=O)O` [Cmpd 27] returned an inhibitory constant (Ki) of 0.6 nM.

On to `CCn1c(C(=O)Nc2ccc(Cn3nc(C)c(CC(=O)O)c3C)c(F)c2)cc2cc(F)ccc21` [Cmpd 32], for which the Ki turned out to be 0.2 nM.

Turning to `Cc1nn(Cc2ccc(NC(=O)c3oc4ccc(Br)cc4c3C)cc2F)c(C)c1CC(=O)O` [Cmpd 45], the Ki came out at 0.3 nM.

As for `CCc1c(C(=O)Nc2ccc(Cn3nc(C)c(CC(=O)O)c3C)cc2)oc2ccc(F)cc12` [Cmpd 48], the Ki turned out to be 1.2 nM. Compared with the last compound, the Ki is about 4-fold higher.
